Test results taken from ChEMBL document CHEMBL4483862, “Open-source discovery of chemical leads for next-generation chemoprotective antimalarials” (2018).

Tested on: Plasmodium berghei
Assay: Luciferase/luciferin-expressing antifolate-resistant parasites were used to infect a culture of HepG2 cells that were pre-incubated with compounds. Infected hepatocytes emit light due to the luciferase reaction. Assay results are presented as the percent inhibition of light emission compared to control. […]
Format: functional
Conditions: sporozoite; for IC90: read-out: LUCIFERASE INFECTION ASSAY - IC90
[1] = read-out: LUCIFERASE INFECTION ASSAY - IC50

| Compound | IC90 [µM] | IC50 [1] [µM] | other results |
| --- | --- | --- | --- |
| COc1ccccc1-c1cc(C(=O)NCC(C)c2ccccc2)no1 (stereo unspecified) | > 10 |  | IC50 (PBLUC_HILL_SLOPE 1.24, PBLUC_R_SQUARED 0.652, read-out: LUCIFERASE INFECTION ASSAY - IC50): 3.42 µM |
| Cc1[nH]c2ccccc2c1C(=O)C(=O)Nc1ccc(N2CCCCC2)nc1 | 9.82 |  | IC50 (PBLUC_HILL_SLOPE 5.45, PBLUC_R_SQUARED 0.664, read-out: LUCIFERASE INFECTION ASSAY - IC50): 6.56 µM |
| CCCCN1C(=O)C(=O)N(CC(=O)Nc2sc(Cc3ccc4c(c3)OCO4)c(C)c2C(=O)OCC)C1=O | 0.0425 |  | IC50 (PBLUC_HILL_SLOPE 37.8, PBLUC_R_SQUARED 0.839, read-out: LUCIFERASE INFECTION ASSAY - IC50): 0.0401 µM |
| Cc1nn(-c2ccccc2)c2sc(C(=O)N3c4ccccc4CC3C)cc12 (stereo unspecified) | > 10 | > 10 |  |
| O=c1c2ccccc2c(-c2ccc(F)cc2F)nn1-c1ccccc1 | > 9.87 | > 9.87 |  |
| CCOc1cccc2c(C)nc(Nc3nc(=O)c4ccccc4[nH]3)nc12 | 7.27 |  | IC50 (HEPG2TOX_HILL_SLOPE 3.19, HEPG2TOX_R_SQUARED 0.9, PBLUC_HILL_SLOPE 4.13, PBLUC_R_SQUARED 0.554, read-out: LUCIFERASE INFECTION ASSAY - IC50): 4.27 µM |
| COc1ncccc1-c1cc2c(cn1)nc(Nc1cccc(C(F)(F)F)c1)n2C | > 10 |  | IC50 (PBLUC_HILL_SLOPE 1.56, PBLUC_R_SQUARED 0.782, read-out: LUCIFERASE INFECTION ASSAY - IC50): 2.89 µM |
| O=C1C=CC(=O)N1c1cccc(Cl)c1 | > 15.9 | > 15.9 |  |
| Cc1cccc(-n2cc(-c3ccccc3)c3c(N4CCN(CCO)CC4)ncnc32)c1 | > 10 | > 10 |  |
| O=C1C=CC(=O)N1c1ccccc1Br | > 13.1 |  | IC50 (PBLUC_HILL_SLOPE 18.8, PBLUC_R_SQUARED 0.535, read-out: LUCIFERASE INFECTION ASSAY - IC50): 12.7 µM |
| CCC(=O)Nc1ccc(CNC(=O)N2CCN(c3ccccc3C)CC2)cc1 | 1.73 |  | IC50 (PBLUC_HILL_SLOPE 9.1, PBLUC_R_SQUARED 0.639, read-out: LUCIFERASE INFECTION ASSAY - IC50): 1.36 µM |
| COCCNc1nc(-c2ccc(Cl)cc2)nc2ccccc12 | > 10.5 | > 10.5 |  |
| Nc1ccc(-c2cnc3ccc(NCc4ccc(F)cc4)nn23)cc1 | 0.372 |  | IC50 (HEPG2TOX_HILL_SLOPE 3.34, HEPG2TOX_R_SQUARED 0.665, PBLUC_HILL_SLOPE 6.16, PBLUC_R_SQUARED 0.867, read-out: LUCIFERASE INFECTION ASSAY - IC50): 0.26 µM |
| O=C(c1ccc(NS(=O)(=O)c2cccs2)cc1)N1CCC(c2c[nH]c3ccccc23)CC1 | > 10 | > 10 |  |
| CC(=O)Nc1ccc(OCc2ccccc2C(F)(F)F)cc1 | 5.57 |  | IC50 (PBLUC_HILL_SLOPE 1.68, PBLUC_R_SQUARED 0.57, read-out: LUCIFERASE INFECTION ASSAY - IC50): 1.51 µM |
| Cn1nc(C(F)(F)F)cc1-c1ccc(NC(=O)Nc2cccc(C(F)(F)F)c2)s1 | > 7.6 |  | IC50 (PBLUC_HILL_SLOPE 15.6, PBLUC_R_SQUARED 0.0592, read-out: LUCIFERASE INFECTION ASSAY - IC50): 7.44 µM |
| O=C1N=C(N2CCCCC2)S/C1=C(/C=C(CC(=O)c1ccccc1)c1ccccc1)c1ccccc1 | > 6.7 | > 6.7 |  |
| COc1ccc(CC(N)c2csc(NC(=O)Nc3cccc(Cl)c3)n2)cc1 (stereo unspecified) | > 8.19 | > 8.19 |  |
| N#Cc1ccc(N2CCCN(C(=O)Nc3cc(Cl)cc(Cl)c3)CC2)nc1 | > 8.46 | > 8.46 |  |
| COc1ccccc1C(=O)NCc1cn(Cc2ccccc2)nc1-c1ccccc1 | > 10 |  | IC50 (PBLUC_HILL_SLOPE 11.8, PBLUC_R_SQUARED 0.553, read-out: LUCIFERASE INFECTION ASSAY - IC50): 9.21 µM |
| OC(CN1CCN(CC(O)Cn2c3ccccc3c3ccccc32)CC1)Cn1c2ccccc2c2ccccc21 (stereo unspecified) | > 6.2 |  | IC50 (PBLUC_HILL_SLOPE 2.73, PBLUC_R_SQUARED 0.624, read-out: LUCIFERASE INFECTION ASSAY - IC50): 3.03 µM |
| O=c1[nH]nc(Sc2ncc([N+](=O)[O-])s2)n1-c1ccccc1C(F)(F)F | > 8.48 |  | IC50 (FFLUC_HILL_SLOPE 106, FFLUC_R_SQUARED 0.375, read-out: LUCIFERASE INFECTION ASSAY - IC50): > 8.48 µM |
| Cc1cc(/C=N/Nc2ccc(Cl)nn2)c(C)n1-c1ccccc1Cl | 9.4 |  | IC50 (FFLUC_HILL_SLOPE 16.1, FFLUC_R_SQUARED 0.664, PBLUC_HILL_SLOPE 12.5, PBLUC_R_SQUARED 0.559, read-out: LUCIFERASE INFECTION ASSAY - IC50): 7.88 µM |
| N/C(=N\NC(=O)c1cccc(C(F)(F)F)c1)c1ccc(C(F)(F)F)cn1 | 1.42 |  | IC50 (HEPG2TOX_HILL_SLOPE 1.95, HEPG2TOX_R_SQUARED 0.695, PBLUC_HILL_SLOPE 3.85, PBLUC_R_SQUARED 0.803, read-out: LUCIFERASE INFECTION ASSAY - IC50): 0.802 µM |

| Compound | IC90 [µM] | IC50 [1] [µM] | other results |
| --- | --- | --- | --- |
| CCOC(=O)c1c(C)oc(-c2ccc(Cl)cc2)c1S(=O)(=O)Nc1cccc(C)c1 | > 7.61 |  | IC50 (HEPG2TOX_HILL_SLOPE 7.66, HEPG2TOX_R_SQUARED 0.177, read-out: LUCIFERASE INFECTION ASSAY - IC50): > 7.61 µM |
| Cc1ccc(C(C)CCN2CCC3(CC2)C(=O)N(CCCc2ccncc2)C(=O)N3CCC(C)C)o1 (stereo unspecified) | > 6.67 |  | IC50 (PBLUC_HILL_SLOPE 13.4, PBLUC_R_SQUARED 0.376, read-out: LUCIFERASE INFECTION ASSAY - IC50): 6.51 µM |
| CO/N=C1\CCCc2c(C(=O)NNS(=O)(=O)c3ccccc3Cl)sc(SC)c21 | > 7.17 | > 7.17 |  |
| COc1cc2c(cc1NC(=O)C1CCCN(S(=O)(=O)c3ccc(F)cc3)C1)oc1ccccc12 (stereo unspecified) | > 10 | > 10 |  |
| N#Cc1ccc(NC(=O)Cn2ncc(Cl)c(Cl)c2=O)cc1 | 5.23 |  | IC50 (HEPG2TOX_HILL_SLOPE 73.2, HEPG2TOX_R_SQUARED 0.451, PBLUC_HILL_SLOPE 8.64, PBLUC_R_SQUARED 0.375, read-out: LUCIFERASE INFECTION ASSAY - IC50): 4.06 µM |
| CNC(=O)NC(=O)CNc1ccc(C(F)(F)F)cc1 | > 10 | > 10 |  |
| CC(C)(C)c1ccc(-c2cnc3cnc(-c4cccc(C(N)=O)c4)cn23)cc1 | > 8.91 |  | IC50 (PBLUC_HILL_SLOPE 3.04, PBLUC_R_SQUARED 0.545, read-out: LUCIFERASE INFECTION ASSAY - IC50): 6.86 µM |
| Cc1cc(C)cc(-n2c(SCc3nc4ccccc4n3C(F)F)nc3ccccc3c2=O)c1 | > 10 | > 10 |  |
| CCCc1cc(N2CCN(C)CC2)n2ncc(-c3ccccc3)c2n1 | > 9.84 | 2.71 |  |
| Oc1cc2[nH]c3ccccc3c2cc1CN1CCN(Cc2ccccc2)CC1 | > 10 |  | IC50 (PBLUC_HILL_SLOPE 3.66, PBLUC_R_SQUARED 0.154, read-out: LUCIFERASE INFECTION ASSAY - IC50): 6.03 µM |
| CCN(CC)C(=O)CN1CCN(C(=O)c2ccc(S(=O)(=O)N3CCOCC3)cc2)CC1 | > 10 | > 10 |  |
| O=C(Nc1cccc(C(F)(F)F)c1)c1ccc(-c2ccccc2F)cc1 | > 9.18 | > 9.18 |  |
| O=C(Nc1ccc(S(=O)(=O)N2CCCC2)cc1)c1cc([N+](=O)[O-])ccc1Sc1nnnn1-c1ccccc1 | > 10 |  | IC50 (FFLUC_HILL_SLOPE 8.42, FFLUC_R_SQUARED 0.732, read-out: LUCIFERASE INFECTION ASSAY - IC50): > 10 µM |
| COc1ccc(-n2nc(C)c3c2NC(=O)CC3c2ccc3c(c2)OCO3)cc1 (stereo unspecified) | > 8.74 |  | IC50 (HEPG2TOX_HILL_SLOPE 1.66, HEPG2TOX_R_SQUARED 0.931, PBLUC_HILL_SLOPE 1.06, PBLUC_R_SQUARED 0.555, read-out: LUCIFERASE INFECTION ASSAY - IC50): 1.33 µM |
| CCCn1nc(C(=O)Nc2cccc(-c3nc4ccccc4[nH]3)c2)c2ccccc2c1=O | 4.7 |  | IC50 (PBLUC_HILL_SLOPE 9.6, PBLUC_R_SQUARED 0.205, read-out: LUCIFERASE INFECTION ASSAY - IC50): 3.74 µM |
| Cc1ccc(C(=O)OCCOc2ccccc2)cc1NC(=O)c1ccco1 | 1.22 |  | IC50 (PBLUC_HILL_SLOPE 15.6, PBLUC_R_SQUARED 0.272, read-out: LUCIFERASE INFECTION ASSAY - IC50): 1.06 µM |
| Cc1cc(C(=O)CSc2nnc(Cn3cnc4ccccc43)n2-c2ccccc2Cl)c(C)n1C | > 10 | > 10 |  |
| O=C(NCc1ccc(F)c(Cl)c1)Nc1csc([N+](=O)[O-])c1 | > 10 |  | IC50 (PBLUC_HILL_SLOPE 9.52, PBLUC_R_SQUARED 0.452, read-out: LUCIFERASE INFECTION ASSAY - IC50): 8.04 µM |
| Cc1cc(C(=O)CSc2nnc(C3CC3)[nH]2)c(C)n1CCC1=CCCCC1 | > 10 | > 10 |  |
| O=C(Nc1nc(-c2ccc[nH]2)cs1)c1cccc(Br)c1 | > 10 |  | IC50 (HEPG2TOX_HILL_SLOPE 0.199, HEPG2TOX_R_SQUARED 0.479, read-out: LUCIFERASE INFECTION ASSAY - IC50): > 10 µM |
| Cc1cc(C(=O)CSc2nc3ccccc3s2)c(C)n1CC1CCCO1 (stereo unspecified) | > 10 | > 10 |  |
| O=C(c1c[nH]c2ccccc12)N1CCN(c2nsc3ccccc23)CC1 | 3.82 |  | IC50 (HEPG2TOX_HILL_SLOPE 9.85, HEPG2TOX_R_SQUARED 0.824, PBLUC_HILL_SLOPE 13.5, PBLUC_R_SQUARED 0.79, read-out: LUCIFERASE INFECTION ASSAY - IC50): 3.25 µM |
| O=C(/C(=C/c1ccc(N2CCOCC2)cc1)c1nc2ccccc2[nH]1)c1cccc(Cl)c1 | > 10 | > 10 |  |
| Oc1c(C(c2ccc(F)cc2)N2CCCCC2)cc(Cl)c2cccnc12 (stereo unspecified) | > 10 |  | IC50 (PBLUC_HILL_SLOPE 3.21, PBLUC_R_SQUARED 0.483, read-out: LUCIFERASE INFECTION ASSAY - IC50): 6.21 µM |
